According to patent US4489163A, “rCRF and analogs” (The Salk Institute for Biological Studies, priority 1983, dated 1984):
Where a SMILES comes first, the peptide text is derived from it. [ ]: non-standard residue; d: D form. The star is where a group is joined. Nle = CCCC[C@H](N)C(=O)O; Bz = O=C(c1ccccc1)*

Key:
[1] = tested on: ACTH and β-endorphin-like (β-END-LI) secretion; assay: ACTH and β-END-LI secretion in vivo after intravenous administration; parameters: species or system rats; details: for stimulation of secretion of ACTH and β-END-LI: general procedure of Example III, in vitro or in vivo not stated
Text: (§1) The synthetic and the natural rCRF were examined for their effects on the secretion of ACTH and β-endorphin in vitro and the synthetic rCRF was also examined in vivo.

[2] = lowering of blood pressure in rats; type: in vivo; details: for lowering of blood pressure: species not given, general procedure of Example III; for lowering of blood pressure compared with rCRF: relative to rCRF, species not stated
[3] = mammals; reported; cited from earlier work
[4] = tested on: secretion of ACTH and β-endorphin; details: reported; cited from earlier work
[5] = tested on: cultured rat pituitary cells; assay: secretion of ACTH and β-endorphin by cultured rat pituitary cells in vitro; type: cell-based; details: in vitro
Text: as §1

Molecule | stimulation of secretion of ACTH and β-END-LI [1] | lowering of blood pressure [2] | further results
CCCC[C@H](NC(=O)[C@@H](NC(=O)[C@H](CC(C)C)NC(=O)[C@H](CC(=O)O)NC(=O)[C@H](CC(C)C)NC(=O)[C@H](CO)NC(=O)[C@@H](NC(=O)[C@@H]1CCCN1C(=O)[C@@H]1CCCN1C(=O)[C@H](CCC(=O)O)NC(=O)CNC(=O)c1ccccc1)[C@@H](C)CC)[C@@H](C)O)C(=O)N[C@@H](Cc1c[nH]cn1)C(=O)N[C@@H](CC(C)C)C(=O)N[C@@H](CC(C)C)C(=O)N[C@@H](CCCNC(=N)N)C(=O)N[C@@H](CCC(=O)O)C(=O)N[C@H](C(=O)N[C@@H](CC(C)C)C(=O)N[C@@H](CCC(=O)O)C(=O)N[C@@H](CCSC)C(=O)N[C@@H](C)C(=O)N[C@@H](CCCNC(=N)N)C(=O)N[C@@H](C)C(=O)N[C@@H](CCC(=O)O)C(=O)N[C@@H](CCC(N)=O)C(=O)N[C@@H](CC(C)C)C(=O)N[C@@H](C)C(=O)N[C@@H](CCC(N)=O)C(=O)N[C@@H](CCC(N)=O)C(=O)N[C@@H](C)C(=O)N[C@@H](Cc1c[nH]cn1)C(=O)N[C@@H](CO)C(=O)N[C@@H](CC(N)=O)C(=O)N[C@@H](CCCNC(=N)N)C(=O)N[C@@H](CCCCN)C(=O)N[C@@H](CC(C)C)C(=O)N[C@@H](CCSC)C(=O)N[C@@H](CCC(=O)O)C(=O)N[C@H](C(=O)N[C@H](C(N)=O)[C@@H](C)CC)[C@@H](C)CC)C(C)C [XII] (Bz-GEPPISLDLT[Nle]HLLREVLEMARAEQLAQQAHSNRKLMEII-NH2) | stimulates the secretion of ACTH and β-END-LI | very significant lowering of blood pressure | –
H-PPISIDLSLELLRKMIEIAKQEKEKQQAANNRLLMDTI-NH2 [XVI] | stimulates the secretion of ACTH and β-END-LI | very significant lowering of blood pressure | –
CC[C@H](C)[C@H](NC(=O)[C@@H](NC(=O)[C@H](CC(=O)O)NC(=O)[C@H](CCSC)NC(=O)[C@H](CC(C)C)NC(=O)[C@H](CC(C)C)NC(=O)[C@H](CCCNC(=N)N)NC(=O)[C@H](CC(N)=O)NC(=O)[C@H](CC(N)=O)NC(=O)[C@H](C)NC(=O)[C@H](C)NC(=O)[C@H](CCC(N)=O)NC(=O)[C@H](CCC(N)=O)NC(=O)[C@H](CCCCN)NC(=O)[C@H](CC(C)C)NC(=O)[C@H](CCCCN)NC(=O)[C@H](CCC(=O)O)NC(=O)[C@H](CCC(N)=O)NC(=O)[C@H](CCCCN)NC(=O)[C@H](CCC(=O)O)NC(=O)[C@@H](NC(=O)[C@H](CCC(=O)O)NC(=O)[C@@H](NC(=O)[C@H](CCSC)NC(=O)[C@H](CCCCN)NC(=O)[C@H](CCCNC(=N)N)NC(=O)[C@H](CC(C)C)NC(=O)[C@H](CC(C)C)NC(=O)[C@H](CCC(=O)O)NC(=O)[C@H](CC(C)C)NC(=O)[C@H](CO)NC(=O)[C@H](CC(C)C)NC(=O)[C@H](CC(=O)O)NC(=O)[C@@H](NC(=O)[C@H](CO)NC(=O)[C@@H](NC(=O)[C@@H]1CCCN1C(=O)[C@@H]1CCCN1C(=O)CNC(=O)[C@@H]1CCC(=O)N1)[C@@H](C)CC)[C@@H](C)CC)[C@@H](C)CC)[C@@H](C)CC)[C@@H](C)O)C(N)=O [XVIII] | stimulates the secretion of ACTH and β-END-LI | very significant lowering of blood pressure | –
H-SEEPPISLDLTFELLREVLEVARAEQLAQQAHSNRKLMEII-NH2 [IX] | stimulates the secretion of ACTH and β-END-LI | very significant lowering of blood pressure | lowering of blood pressure compared with rCRF [2]: to a great extent than rCRF
Ac-PPISLDLTFHLLREVLEMARAEQLAQQAHSNRKLMDII-NH2 [XIII] | stimulates the secretion of ACTH and β-END-LI | very significant lowering of blood pressure | lowering of blood pressure compared with rCRF [2]: to a greater extent than rCRF
CC[C@H](C)[C@H](NC(=O)[C@@H](NC(=O)[C@H](CC(=O)O)NC(=O)[C@H](CC(C)C)NC(=O)[C@H](CC(C)C)NC(=O)[C@H](CC(C)C)NC(=O)[C@H](CCCNC(=N)N)NC(=O)[C@H](CC(N)=O)NC(=O)[C@H](CC(N)=O)NC(=O)[C@H](C)NC(=O)[C@H](C)NC(=O)[C@H](CCC(N)=O)NC(=O)[C@H](CCC(N)=O)NC(=O)[C@H](CCCCN)NC(=O)[C@H](CCC(=O)O)NC(=O)[C@H](CCCCN)NC(=O)[C@H](CCC(=O)O)NC(=O)[C@H](CCC(N)=O)NC(=O)[C@H](CCCCN)NC(=O)[C@H](CCCNC(=N)N)NC(=O)[C@H](C)NC(=O)[C@H](CCC(=O)O)NC(=O)[C@@H](NC(=O)[C@H](CCSC)NC(=O)[C@H](CCCCN)NC(=O)[C@H](CCCNC(=N)N)NC(=O)[C@H](CC(C)C)NC(=O)[C@H](CC(C)C)NC(=O)[C@H](CCC(=O)O)NC(=O)[C@H](CC(C)C)NC(=O)[C@H](CO)NC(=O)[C@H](CC(C)C)NC(=O)[C@H](CC(=O)O)NC(=O)[C@@H](NC(=O)[C@H](CO)NC(=O)[C@@H](NC(=O)[C@@H]1CCCN1C(=O)[C@@H]1CCCN1C(=O)CNC(=O)[C@@H]1CCC(=O)N1)[C@@H](C)CC)[C@@H](C)CC)[C@@H](C)CC)[C@@H](C)CC)C(N)=O [XVII] | stimulates the secretion of ACTH and β-END-LI | very significant lowering of blood pressure | –
H-SEEPPISLDLTFHLLREVLEAARAEQLAQQAHSNRKLLEI[Nle]-NH2 [XI] | stimulates the secretion of ACTH and β-END-LI | very significant lowering of blood pressure | –
H-SQEPPISLDLTFHLLREVLEMAKAEQLAQQAHSNRKLLEII-NH2 [XIV] | stimulates the secretion of ACTH and β-END-LI | very significant lowering of blood pressure | –
H-Ser-Gln-Glu-Pro-Pro-Ile-Ser-Leu-Asp-Leu-Thr-Phe-His-Leu-Leu-Arg-Glu-Val-Leu-Glu-Met-Thr-Lys-Ala-Asp-Gln-Leu-Ala-Gln-Gln-Ala-His-Ser-Asn-Arg-Lys-Leu- Leu-Asp-Ile-Ala-NH2 (H-SQEPPISLDLTFHLLREVLEMTKADQLAQQAHSNRKLLDIA-NH2) [oCRF, ovine corticotropin releasing factor characterized in 1981] | – | – | biological activity in lowering blood pressure [3]: biological activity in lowering blood pressure in mammals; biological activity in stimulating the secretion of ACTH and β-endorphin [4]: stimulating the secretion of ACTH and β-endorphin
H-SEEPPISLDLTFHLLREVAEMTRAEQLAQQAHSNRKLMEII-NH2 [VII] | stimulates the secretion of ACTH and β-END-LI | very significant lowering of blood pressure | –
CC[C@H](C)[C@H](NC(=O)[C@@H](NC(=O)[C@H](CCC(=O)O)NC(=O)[C@H](CCSC)NC(=O)[C@H](CC(C)C)NC(=O)[C@H](CCCCN)NC(=O)[C@H](CCCNC(=N)N)NC(=O)[C@H](CC(N)=O)NC(=O)[C@H](CO)NC(=O)[C@H](Cc1c[nH]cn1)NC(=O)[C@H](C)NC(=O)[C@H](CCC(N)=O)NC(=O)[C@H](CCC(N)=O)NC(=O)[C@H](C)NC(=O)[C@H](CC(C)C)NC(=O)[C@H](CCC(N)=O)NC(=O)[C@H](CCC(=O)O)NC(=O)[C@H](C)NC(=O)[C@H](CCCNC(=N)N)NC(=O)[C@H](C)NC(=O)[C@H](CCSC)NC(=O)[C@H](CCC(=O)O)NC(=O)[C@H](CC(C)C)NC(=O)[C@@H](NC(=O)[C@H](CCC(=O)O)NC(=O)[C@H](CCCNC(=N)N)NC(=O)[C@H](CC(C)C)NC(=O)[C@H](CC(C)C)NC(=O)[C@H](Cc1c[nH]cn1)NC(=O)[C@H](Cc1ccccc1)NC(=O)[C@@H](NC(=O)[C@H](CC(C)C)NC(=O)[C@H](CC(=O)O)NC(=O)[C@H](CC(C)C)NC(=O)[C@H](CO)NC(=O)[C@@H](NC(=O)[C@@H]1CCCN1C(=O)[C@@H]1CCCN1C(=O)[C@H](CCC(=O)O)NC(=O)[C@H](CCC(=O)O)NC(=O)[C@@H](N)CO)[C@@H](C)CC)[C@@H](C)O)C(C)C)[C@@H](C)CC)C(N)=O [natural rCRF] | – | – | stimulation of secretion of ACTH and β-endorphin in vitro [5]: high potency; stimulation of secretion of ACTH and β-endorphin in vitro ([5]; listed as isolated rCRF): stimulate ACTH and β-endorphin activies; stimulation of ACTH and β-END-LI secretion in vivo (words) ([1]; in vivo, several rat preparations, listed as isolated rCRF): stimulate ACTH and β-endorphin activies
H-SEEPPISLDLTFHLLREVLE[Nle]ARAEQLAQQAYSNRKLMEII-NH2 [XV] | stimulates the secretion of ACTH and β-END-LI | very significant lowering of blood pressure | lowering of blood pressure compared with rCRF [2]: to a greater extent than rCRF
H-SEEPPIS[Nle]DLSFHLLREVLEMARAEQLAQQAHLNRKLMEII-NH2 [X] | stimulates the secretion of ACTH and β-END-LI | very significant lowering of blood pressure | –
CC[C@H](C)[C@H](NC(=O)[C@@H](NC(=O)[C@H](CC(=O)O)NC(=O)[C@H](CC(C)C)NC(=O)[C@H](CC(C)C)NC(=O)[C@H](CC(C)C)NC(=O)[C@H](CCCNC(=N)N)NC(=O)[C@H](CC(N)=O)NC(=O)[C@H](CC(N)=O)NC(=O)[C@H](C)NC(=O)[C@H](C)NC(=O)[C@H](CCC(N)=O)NC(=O)[C@H](CCC(N)=O)NC(=O)[C@H](CCCCN)NC(=O)[C@H](CCC(=O)O)NC(=O)[C@H](CCCCN)NC(=O)[C@H](CCC(=O)O)NC(=O)[C@H](CCC(N)=O)NC(=O)[C@H](CCCCN)NC(=O)[C@H](CCC(=O)O)NC(=O)[C@@H](NC(=O)[C@H](CCC(=O)O)NC(=O)[C@@H](NC(=O)[C@H](CCSC)NC(=O)[C@H](CCCCN)NC(=O)[C@H](CCCNC(=N)N)NC(=O)[C@H](CC(C)C)NC(=O)[C@H](CC(C)C)NC(=O)[C@H](CCC(=O)O)NC(=O)[C@H](CC(C)C)NC(=O)[C@H](CO)NC(=O)[C@H](CC(C)C)NC(=O)[C@H](CC(=O)O)NC(=O)[C@@H](NC(=O)[C@H](CO)NC(=O)[C@@H](NC(=O)[C@@H]1CCCN1C(=O)[C@@H]1CCCN1C(=O)CNC(=O)[C@@H]1CCC(=O)N1)[C@@H](C)CC)[C@@H](C)CC)[C@@H](C)CC)[C@@H](C)CC)[C@@H](C)O)C(N)=O [Sauvagine] | – | – | biological activity in lowering blood pressure [3]: biological activity in lowering blood pressure in mammals; biological activity in stimulating the secretion of ACTH and β-endorphin [4]: stimulating the secretion of ACTH and β-endorphin
